According to publication PMC13483160, “Reorganization of Innate Immune Cell Lipid Profiles by Bioinspired Meroterpenoids to Limit Inflammation” (Advanced Science, 2026):

Target: T1, 5-lipoxygenase (ALOX5) (Homo sapiens, UniProt P09917)
T1 sequence (P09917 1-674): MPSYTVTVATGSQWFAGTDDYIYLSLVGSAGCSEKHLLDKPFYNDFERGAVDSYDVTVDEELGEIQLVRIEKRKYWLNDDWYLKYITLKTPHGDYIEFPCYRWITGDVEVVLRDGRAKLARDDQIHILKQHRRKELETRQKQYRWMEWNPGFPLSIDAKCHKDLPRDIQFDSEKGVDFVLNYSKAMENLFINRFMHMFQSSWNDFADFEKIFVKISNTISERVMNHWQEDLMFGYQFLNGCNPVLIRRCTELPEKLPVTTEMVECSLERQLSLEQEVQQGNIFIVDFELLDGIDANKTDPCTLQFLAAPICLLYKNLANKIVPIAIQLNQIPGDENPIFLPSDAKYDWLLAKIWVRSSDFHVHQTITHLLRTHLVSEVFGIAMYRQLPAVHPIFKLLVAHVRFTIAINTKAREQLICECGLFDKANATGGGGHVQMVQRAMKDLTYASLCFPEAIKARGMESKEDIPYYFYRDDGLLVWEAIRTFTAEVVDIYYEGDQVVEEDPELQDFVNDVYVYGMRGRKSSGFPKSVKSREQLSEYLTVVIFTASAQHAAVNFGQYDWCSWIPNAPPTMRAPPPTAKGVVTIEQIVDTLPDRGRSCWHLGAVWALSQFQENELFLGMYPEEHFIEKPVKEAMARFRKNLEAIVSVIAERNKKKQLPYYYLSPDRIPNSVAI
Test: enzyme kinetics of human recombinant ALOX5 at varying AA ([…])
Format: biochemical

CCCCC/C=C\C/C=C\C/C=C\C/C=C\CCCC(=O)O [AA/20:4, 5Z,8Z,11Z,14Z‐eicosatetraenoic acid] was tested. Which “enzyme kinetics of human recombinant ALOX5 at varying AA (3-300 μM)” value did it give?
Its value is “Lineweaver–Burk plot generated from activity data of human recombinant ALOX5”.
